Entries after “also recorded” stand apart in the source; their conditions may differ. Like-named read-outs stand apart in the source and are kept apart here. Bridges are numbered along the chain shown (N, C = ends). Where no end group is shown, it is not given here.
Columns and labels:
ArSSR1 = assay: GFP-aequorin luminescence receptor activation assay, CHO-K1 cells, ArSSR1 + Gα16; format: cell-based, Asterias rubens; settings: ArSSR1
[1] = test system: CHO-K1 cells transfected with an empty pcDNA3.1(+) vector; assay: luminescence control assay, CHO-K1 cells transfected with empty vector; format: cell-based, Chinese hamster; settings: 10^-12 to 10^-5 M (figure S12), 0.1 % Triton X-100 = 100%
Experimental: In order to characterize the candidate SS-type receptors, a G-protein-dependent receptor activation assay was employed. Chinese hamster ovary (CHO)-K1 cells stably overexpressing the calcium-sensitive bioluminescent reporter GFP-aequorin fusion protein (G5A) were used as a heterologous expression system. Plasmids containing A. rubens SS-type receptor cDNAs were co-transfected with the promiscuous human Gα16, which is widely used for receptor deorphanization assays. […] After 3 h incubation, a fixed volume of cells was injected sequentially into each well containing different concentrations of peptides using a FLUOstar Omega Plate Reader (BMG LABTECH, Ortenberg, Germany). Luminescence values were recorded over a 35 s period after injection. The total luminescence of each well over the 35 s period was calculated and normalized to the maximum value obtained in each experiment (100% activation) and to the value obtained with the vehicle media (0% activation). […] EC50 values were calculated from dose–response curves using Prism 6. The luminescence responses triggered by 10^−5 M ArSS1, 10^−5 M ArSS2 and vehicle media were analysed by one-way ANOVA using Bonferroni's multiple comparisons post hoc test in Prism 6. […]

ArSSR3 = assay: GFP-aequorin luminescence receptor activation assay, CHO-K1 cells, ArSSR3 + Gα16; format: cell-based, Asterias rubens; settings: ArSSR3
Sequence of ArSSR3 (as listed by the source): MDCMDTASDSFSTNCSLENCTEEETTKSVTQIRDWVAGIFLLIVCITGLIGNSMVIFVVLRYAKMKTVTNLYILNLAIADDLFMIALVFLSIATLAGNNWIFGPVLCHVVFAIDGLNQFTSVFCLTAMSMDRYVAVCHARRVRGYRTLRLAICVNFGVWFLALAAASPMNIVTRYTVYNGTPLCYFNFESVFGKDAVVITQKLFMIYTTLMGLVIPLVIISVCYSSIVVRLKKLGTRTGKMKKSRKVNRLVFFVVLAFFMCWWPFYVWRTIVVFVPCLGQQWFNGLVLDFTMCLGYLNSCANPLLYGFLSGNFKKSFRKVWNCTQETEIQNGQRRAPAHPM

ArSSR2 = assay: GFP-aequorin luminescence receptor activation assay, CHO-K1 cells, ArSSR2 + Gα16; format: cell-based, Asterias rubens; settings: ArSSR2
[2] = test system: cardiac stomach of A. rubens; assay: in vivo cardiac stomach eversion after injection into the perivisceral coelom; design: species or system Asterias rubens; settings: 10 µl 10^−3 M into perivisceral coelom, n = 10
Experimental: When starfish (A. rubens) feed, the cardiac stomach is relaxed and everted out of the mouth over the digestible soft tissues of prey (e.g. mussels). […] Therefore, because ArSS2 causes relaxation of cardiac stomach preparations in vitro, we investigated if ArSS2 also triggers cardiac stomach eversion when injected in vivo. Firstly, 15 medium-sized starfish were starved for one week to normalize their physiological status. A Hamilton […] 50 μl syringe (Sigma-Aldrich; Gillingham, UK) was used to inject 10 μl 1 mM ArSS2, or 10 μl 1 mM asterotocin (positive control) or 10 μl water (negative control) into the […] coelom of starfish. ArSS2 was tested on five individuals firstly and then the next day, asterotocin was tested on the same batch of five individuals. For another five individuals, asterotocin was tested first and then ArSS2 was tested on the following day. The remaining five individuals were injected with water as a control. Thus, both ArSS2 and asterotocin were tested on ten starfish. For each starfish, the test agent was injected via two sites in the dorsal body wall of the arms proximal to the junctions with the central disc region. Care was taken to inject test agents into the […] coelom and not into the cardiac stomach.

[3] = test system: apical muscle preparations from A. rubens; settings: ref [67]; cited from earlier work
[4] = test system: tube foot preparations from A. rubens; settings: ref [67]; cited from earlier work
[5] = test system: cardiac stomach preparations from A. rubens; settings: cited from earlier work; for cardiac stomach relaxant activity: ref [64],[67]
Text: Likewise, ArSS2 caused dose-dependent relaxation of cardiac stomach preparations at concentrations between ... || ArSS2 is widely expressed in the digestive system of A. rubens, including the peristomial membrane, cardiac stomach, pyloric stomach, pyloric duct, and pyloric caeca. In the cardiac stomach, ArSSP2 transcripts are detected in cells located in the mucosa layer and ArSS2-immunoreactivity is present in the adjacent basi-epithelial nerve plexus. Consistent with this expression of ArSS2 in the cardiac stomach, ArSS2 causes dose-dependent relaxation of cardiac stomach preparations.

[6] = test system: cardiac stomach preparations from A. rubens; assay: in vitro relaxation of cardiac stomach preparations; design: species or system Asterias rubens; settings: n = 6
Experimental: Synthetic ArSS2 ([…], with a disulfide bridge between the cysteine residues) was custom synthesized (Peptide Protein Research Ltd, Fareham, UK) to enable testing of its pharmacological effects on in vitro preparations of organs/muscles from A. rubens. ArSS2 was tested for its in vitro effects on the contractility of tube foot, apical muscle and cardiac stomach preparations from at least six different specimens of A. rubens. Individual tube foot preparations were dissected from starfish arms with their corresponding ampulla intact. Then cotton ligatures were tied around the ambulacral body wall and the tube foot disc and then the external epithelium of the tube foot was scraped off using a blunt scalpel blade to facilitate penetration of peptides when tested in vitro, as described previously. Apical muscle preparations were dissected from the aboral body wall with approximately 1 cm strips of apical muscle tied at each end with cotton ligatures. Cardiac stomach preparations were dissected as described previously and then were tied at the aboral side of the cardiac stomach and around the oesophagus with cotton ligatures. The dissected preparations were tied to a fixed metal hook orally and to a high-grade isotonic transducer (MLT0015; ADInstruments Ltd; Oxford, UK) aborally, suspended in a 20 ml aerated organ bath containing artificial seawater at approximately 11°C. The transducer was connected via a bridge amplifier (FE221 Bridge Amp, ADInstruments Ltd, Oxford, UK) to data acquisition hardware (PowerLab 2/36, ADInstruments Ltd, Oxford, UK). Data collected from PowerLab were visualized as traces and analysed using LabChart (v. 8.0.7) software installed on a laptop computer (Lenovo E540, Windows 7 Professional).
To examine the effects of ArSS2 on tube foot and cardiac stomach preparations, 10^−6 M acetylcholine (ACh) or artificial seawater (ASW) containing 30 mM added KCl was used to induce contraction of these preparations, respectively. Once a stable baseline contracted state was achieved, synthetic ArSS2 was added into the organ bath to sequentially achieve final concentrations in the range of 10^−10 to 10^−6 M. For these experiments, the contracting effect of 10^−6 M ACh or ASW containing 30 mM added KCl was defined as 100% and the relaxing effects of ArSS2 were then calculated as a percentage reversal of the 100% contracted state.
Experiments were performed where the effects of ArSS2, S2 and asterotocin (at 10^−7 and 10^−6 M) on cardiac stomach preparations (n = 6) were compared. For these experiments, the effect of 10^−7 or 10^−6 M S2 was defined as 100% and the effect of asterotocin or ArSS2 was calculated as a % of the effect of S2. To determine if there were significant differences in magnitude of the relaxing effects of the three peptides on cardiac stomach preparations, data were analysed statistically using a two-tailed Student's t-test in Prism 6.

[7] = test system: cardiac stomach of A. rubens; settings: cited from earlier work
Text: When starfish (A. rubens) feed, the cardiac stomach is relaxed and everted out of the mouth over the digestible soft tissues of prey (e.g. mussels). […] Therefore, because ArSS2 causes relaxation of cardiac stomach preparations in vitro, we investigated if ArSS2 also triggers cardiac stomach eversion when injected in vivo. Firstly, 15 medium-sized starfish were starved for one week to norm ... || Asterias rubens feeds by everting its cardiac stomach through a narrow oral opening (mouth) and over the digestible parts of its prey, and for this to be accomplished, the cardiac stomach must be in a relaxed state. Neuropeptides that cause cardiac stomach in vitro are therefore potential mediators of cardiac stomach eversion in vivo. […] Therefore, here we investigated if ArSS2 also triggers cardiac stomach ever ... || The in vitro relaxing effect of ArSS2 on the cardiac stomach of A. rubens is of interest from a physiological/behavioural perspective because relaxation of the cardiac stomach is required for the extraoral feeding behaviour of starfish where it is everted out of the mouth and over the digestible soft tissue of prey such as mussels.

[8] = 10^−5 M, vs BSA media (control) and, for ArSS2, vs ArSS1, one-way ANOVA, Bonferroni
[9] = injected in vivo, ref [66],[67]

KCIGRFQPFSMPC (disulfide 2-13 (inferred)) [ArSS1, 13-residue SS-type neuropeptide of Asterias rubens derived from ArSSP1 (…)]
luminescence compared with control (ArSSR1; [8]): not significantly different | triggering of luminescence (ArSSR1; 10^−21 to 10^−4 M): did not trigger luminescence | luminescence response in cells with empty vector [1]: do not trigger luminscence; also recorded: Neither ArSS1 nor ArSS2 elicited responses | luminescence compared with control (ArSSR3; [8]): not significantly different | triggering of luminescence (ArSSR3; 10^−21 to 10^−4 M): did not trigger luminescence | luminescence compared with control (ArSSR2; [8]): not significantly different | triggering of luminescence (ArSSR2; 10^−21 to 10^−4 M): did not trigger luminescence

CLVQDCPEG-NH2 (disulfide 1-6 (inferred)) [asterotocin, reference compound]
mean maximal eversion, area of everted cardiac stomach ([2]; 10 min recording): ~125 % of the area of the central disc region | incidence of cardiac stomach eversion [2]: all of the animals | time of mean maximal eversion after injection [2]: approximately 9 min | relaxation of apical muscle preparations [3]: caused relaxation of cardiac stomach and apical muscle preparations but not tube feet | relaxation of tube foot preparations [4]: caused relaxation of cardiac stomach and apical muscle preparations but not tube feet | cardiac stomach relaxant activity [5]: act as cardiac stomach relaxants | effectiveness as cardiac stomach relaxant compared with S2 ([5]; ref [67]): much more effective as a cardiac stomach relaxant than S2 | relaxation of cardiac stomach preparations ([5]; ref [67]): caused relaxation of cardiac stomach and apical muscle preparations but not tube feet | relaxing effect compared with S2 ([6]; 10^−6 M, two-tailed Student's t-test p = 0.0255): significantly larger than the effect S2 | relaxing effect compared with ArSS2 ([6]; 10^−6 M, two-tailed Student's t-test p = 0.0483): significantly larger | magnitude of cardiac stomach relaxing action relative to S2 ([6]; 10^−7 M, KCl-contracted, mean): 3.5 times the effect of S2 | relaxing effect compared with S2 ([6]; 10^−7 M, two-tailed Student's t-test p = 0.0055): significantly larger than the effect of S2 | relaxing effect compared with ArSS2 ([6]; 10^−7 M, two-tailed Student's t-test p = 0.0250): significantly larger | cardiac stomach eversion ([7]; 100 µl 10^−3 M into perivisceral coelom, ref [67]): complete eversion of the cardiac stomach | cardiac stomach eversion [7, 9]: induce cardiac stomach eversion when injected in vivo | effectiveness and potency in triggering cardiac stomach eversion compared with S2 ([7]; ref [67]): much more effective and potent than S2

SGPYSFNSGLTF-NH2 [S2, SALMFamide neuropeptide S2 (…-NH2)]
cardiac stomach relaxant activity [5]: act as cardiac stomach relaxants | relaxation of tube foot and/or cardiac stomach preparations ([5]; tube foot and/or cardiac stomach, ref [64],[66]): cause relaxation of tube foot and/or cardiac stomach preparations | magnitude of cardiac stomach relaxing action relative to asterotocin ([6]; 10^−6 M, KCl-contracted, mean): approximately 50 % of the effect of asterotocin | cardiac stomach eversion [7, 9]: induce cardiac stomach eversion when injected in vivo

Source: paper PMC7536072, “Molecular and functional characterization of somatostatin-type signalling in a deuterostome invertebrate” (Open Biology, 2020)
